Consider seven compounds from patent US9133115B2 (ACHILLION PHARMACEUTICALS, INC., priority 2008, dated 2015).

The experiment deals with HCV replicon. Nature of the experiment: HCV replicon replication assay (NPT ELISA) in Huh-7 replicon-containing cells. It is filed as cell-based. Particulars: Hepatitis C virus, 72 h; HCV replicon in Huh-7 cells, three days incubation; read-out: EC50. Put shortly: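 Replication was scored by capture ELISA of neomycin phosphotransferase, whose level tracks replicon replication, after graded compound treatment. The cells were Huh-7 harbouring an HCV-IRES/neo/EMCV-IRES/NS3–NS5B/3′-NTR replicon, plated at 6000-7500 cells/well and dosed 24 h later at 60-70% confluence; interferon alpha was the positive control.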
Usually EC50 stands for the concentration at which the effect is half-maximal. As to `C=C[C@@H]1C[C@]1(NC(=O)[C@@H]1C[C@@H](Oc2nc3ccccc3nc2-c2ccccc2)CN1C(=O)[C@@H](CC(=O)N1CCCCC1)C(C)(C)C)C(=O)NS(=O)(=O)C1CC1` [Compound 133, (2S,4R)-1-((S)-2-tert-butyl-4-oxo-4-(piperidin-1-yl)butanoyl)-N-((1R,2S)-1-(cyclo-propylsulfonyl-carbamoyl)-2-vinyl-cyclopropyl)-4-(3-phenylquinoxalin-2-yloxy)pyrrolidine-2-carboxamide], the EC50 fell in the range of 1000 to 10000 nM.
With `C=C[C@@H]1C[C@]1(NC(=O)[C@@H]1C[C@@H](Oc2cc(-c3ccccc3)nc3cc(OC)ccc23)CN1C(=O)[C@H](CC(=O)N1CCCCC1)C(C)(C)C)C(=O)NS(=O)(=O)C1CC1` [Compound 134, (2S,4R)-1-((R)-2-tert-butyl-4-oxo-4-(piperidin-1-yl)butanoyl)-N-((1R,2S)-1-(cyclo-propylsulfonyl-carbamoyl)-2-vinylcyclopropyl)-4-(7-methoxy-2-phenylquinolin-4-yloxy)pyrrolidine-2-carboxamide] the figure was 1000 to 10000 nM; with `C=C[C@@H]1C[C@]1(NC(=O)[C@@H]1C[C@@H](Oc2cc(-c3ccccc3)nc3cc(OC)ccc23)CN1C(=O)[C@@H](CC(=O)N1CCCCC1)C(C)(C)C)C(=O)NS(=O)(=O)C(C)CC` (stereo partly drawn) [Compound 135, (2S,4R)-1-((S)-2-tert-butyl-4-oxo-4-(piperidin-1-yl)butanoyl)-N-((1R,2S)-1-(sec-butylsulfonyl-carbamoyl)-2-vinylcyclopropyl)-4-(7-methoxy-2-phenylquinolin-4-yloxy)pyrrolidine-2-carboxamide], below 1000 nM.
On to `C=C[C@@H]1C[C@]1(NC(=O)[C@@H]1C[C@@H](Oc2cc(-c3ccccc3)nc3cc(OC)ccc23)CN1C(=O)[C@@H](CC(=O)N1CCCCC1)C(C)(C)C)C(=O)NS(=O)(=O)CCC` [Compound 136, (2S,4R)-1-((S)-2-tert-butyl-4-oxo-4-(piperidin-1-yl)butanoyl)-4-(7-methoxy-2-phenylquinolin-4-yloxy)-N-((1R,2S)-1-(propylsulfonyl-carbamoyl)-2-vinyl-cyclopropyl)pyr-rolidine-2-carboxamide], for which the EC50 is below 1000 nM.
The result for `C=C[C@@H]1C[C@]1(NC(=O)[C@@H]1C[C@@H](Oc2cc(-c3csc(N(C)C)n3)nc3cc(OC)ccc23)CN1C(=O)[C@@H](CC(=O)N1CCCCC1)C(C)(C)C)C(=O)NS(=O)(=O)C1CC1` [Compound 137, (2S,4R)-1-((S)-2-tert-butyl-4-oxo-4-(piperidin-1-yl)butanoyl)-N-((1R,2S)-1-(cyclo-propylsulfonyl-carbamoyl)-2-vinylcyclopropyl)-4-(2-(2-(dimethyl-amino)thiazol-4-yl)-7-methoxyquinolin-4-yloxy)pyrrolidine-2-carboxamide] reads below 1000 nM; that for `C=C[C@@H]1C[C@]1(NC(=O)[C@@H]1C[C@@H](Oc2cc(-c3csc(N(C)C)n3)nc3cc(OC)ccc23)CN1C(=O)[C@@H](CC(=O)N1CCOCC1)C(C)(C)C)C(=O)NS(=O)(=O)C1CC1` [Compound 138, (2S,4R)-1-((S)-2-tert-butyl-4-morpholino-4-oxobutanoyl)-N-((1R,2S)-1-(cyclo-propylsulfonyl-carbamoyl)-2-vinyl-cyclopropyl)-4-(2-(2-(dimethylamino)thiazol-4-yl)-7-methoxyquinolin-4-yloxy)pyrrolidine-2-carboxamide], below 1000 nM.
Consider `C=C[C@@H]1C[C@]1(NC(=O)[C@@H]1C[C@@H](n2nc(-c3ccccc3)c(-c3ccccc3)n2)CN1C(=O)[C@@H](CC(=O)N1CCCCC1)C(C)(C)C)C(=O)NS(=O)(=O)C1CC1` [Compound 139, (2S,4R)-1-((S)-2-tert-butyl-4-oxo-4-(piperidin-1-yl)butanoyl)-N-((1R,2S)-1-(cyclopropyl-sulfonylcarbamoyl)-2-vinylcyclopropyl)-4-(4,5-diphenyl-2H-1,2,3-triazol-2-yl)pyrrolidine-2-carboxamide], for which the concentration for a half-maximal effect (EC50) is below 1000 nM.
